Results taken from US4284619A, “Esters useful as brain imaging agents” (Medi-Physics, Inc., priority 1978, dated 1981).

Tests used:
[1] = Biodistribution bioassay of I-123-labeled compounds in rats, 5 minutes after tail vein injection (blood, brain, heart, stomach activity); format: in vivo, Female Sprague-Dawley rats; details: rat; for Percent Dose/g. at 5 min. Blood / Percent Dose/g. at 5 min. Brain / Percent Dose/g. at 5 min. Heart: 0.05 to 1.0 mCi, I-123-labeled
Description: Bioassays were performed utilizing compounds from the foregoing examples labeled with I-123 in accordance with the method described in Example 11. Female Sprague-Dawley rats weighing approximately 150 g. were anesthetized with sodium pentobarbital and were injected in a tail vein with from 0.05 to 1.0 mCi (in a volume of 0.2 to 0.5 ml) of the I-123-labeled compound. Two specimens were utilized for each test.
The animals were sacrificed at 5 minutes post injection, the tails discarded and the amount of activity in various organs determined. Each organ was counted at a standardized geometry with a thallium iodide-activated sodium iodide crystal scintillation counter adjusted for the 159 keV emission of I-123. The organs were also weighed to one thousandth of a gram and the activity calculated as a percent of administered dose per gram organ weight.
The ratio of brain-to-blood activity was calculated as a percent of administered dose per gram. The important determinations are the amount of activity in the brain and the brain/blood ratio. The amount of activity in the stomach is related to loss of the I-123-label. For comparative purposes, I-123 antipyrine was utilized as a standard.

[2] = prior art brain imaging agent; cited from earlier work
[3] = i.v. tail vein, ratio of percent dose per gram
[4] = i.v. tail vein, stomach, related to loss of the I-123-label

| Percent Dose in Stomach ([1]; in vivo, iv) | Ratio Brain/Blood ([1]; in vivo, iv) | Ratio Heart/Blood ([1]; in vivo, iv) | Compound | loss of the iodine label in the brain [2] | Percent Dose/g. at 5 min. Blood ([1]; i.v. tail vein) | Percent Dose/g. at 5 min. Brain ([1]; i.v. tail vein) | Percent Dose/g. at 5 min. Heart ([1]; i.v. tail vein) | Ratio Brain/Blood [1, 3] | Ratio Heart/Blood [1, 3] | Percent Dose in Stomach [1, 4] |
| --- | --- | --- | --- | --- | --- | --- | --- | --- | --- | --- |
| 0.92 Percent Dose | 0.20 | 0.60 | O=C(Oc1ccccc1)c1ccccc1[123I] [Example 6, phenyl o-iodobenzoate] |  |  |  |  |  |  |  |
| 0.77 Percent Dose | 0.08 | 0.51 | O=C(Oc1cccc(O)c1O)c1ccccc1[123I] [Example 8, pyrogallyl o-iodobenzoate] |  |  |  |  |  |  |  |
| 2.23 Percent Dose |  |  | Cc1c([123I])c(=O)n(-c2ccccc2)n1C [^I 123-iodoantipyrine, 4-iodoantipyrine, reference compound] | significant loss of the iodine label in the brain |  |  |  |  |  |  |

The remaining lines, values behind:

| Compound | Percent Dose in Stomach ([1]; in vivo, iv) | Ratio Brain/Blood ([1]; in vivo, iv) | Ratio Heart/Blood ([1]; in vivo, iv) | loss of the iodine label in the brain [2] | Percent Dose/g. at 5 min. Blood ([1]; i.v. tail vein) | Percent Dose/g. at 5 min. Brain ([1]; i.v. tail vein) | Percent Dose/g. at 5 min. Heart ([1]; i.v. tail vein) | Ratio Brain/Blood [1, 3] | Ratio Heart/Blood [1, 3] | Percent Dose in Stomach [1, 4] |
| --- | --- | --- | --- | --- | --- | --- | --- | --- | --- | --- |
| CCOC(=O)c1ccccc1[123I] [Example 2, ethyl o-iodobenzoate] | 0.81 Percent Dose | 0.14 | 0.59 |  |  |  |  |  |  |  |
| O=C(OCc1ccccc1)c1ccccc1[123I] [Example 7, benzyl o-iodobenzoate] | 1.46 Percent Dose | 0.25 | 0.65 |  |  |  |  |  |  |  |
| CCCCCCCCCCCCCCCCCCOC(=O)c1ccccc1[123I] [Example 10, octadecyl o-iodobenzoate] | 0.92 Percent Dose | 0.12 | 0.53 |  |  |  |  |  |  |  |
| glyceryl o-iodobenzoate [Example 5] |  |  |  |  | 1.67 Percent Dose/g. | 0.73 Percent Dose/g. | 1.12 Percent Dose/g. | 0.43 | 0.67 | 0.79 Percent Dose |
| pyridoxyl o-iodobenzoate [Example 9] |  |  |  |  | 1.61 Percent Dose/g. | 0.31 Percent Dose/g. | 1.02 Percent Dose/g. | 0.19 | 0.63 | 0.93 Percent Dose |
